Measured values: article PMC5812454 (Nanomedicine : nanotechnology, biology, and medicine, 2016)
Each block holds one compound with its values, some of them ahead of it. Where a SMILES comes first, the peptide text is derived from it. Bridges are numbered along the chain shown (N, C = ends). {NH2} = amine

Key:
[1] = target: T1, Recombinant human HER2 (Thr 23 – Thr 652) fused to IgG1 Fc Tag (Homo sapiens, UniProt P04626); test: SPR binding to immobilized HER2
[2] = ref [8]; cited from earlier work
[3] = test system: HER2-positive breast cancer; conditions: cited from earlier work
[4] = target: T1, Recombinant human HER2 (Thr 23 – Thr 652) fused to IgG1 Fc Tag; test: SPR

Kd [1]: 520 nM | koff ([1]; pH 9.5): 0.00042 s⁻¹
Compound: CSCC[C@H](NC(=O)[C@H](Cc1ccc(O)cc1)NC(=O)[C@@H]1CSSC[C@H](NC(=O)[C@@H](N)Cc2ccc(O)cc2)C(=O)N[C@@H](CC(=O)O)C(=O)NCC(=O)N[C@@H](Cc2ccccc2)C(=O)N[C@@H](Cc2ccc(O)cc2)C(=O)N[C@@H](C)C(=O)N1)C(=O)N[C@@H](CC(=O)O)C(=O)N[C@H](C(N)=O)C(C)C [AHNP] (H-YCDGFYACYMDV-NH2; disulfide 2-8)
water solubility (in words) [2]: poorly water soluble | tumor growth inhibition (in words) ([3]; free AHNP, dose of 4 mg/kg, ref [12]): only a modest degree of inhibition

Compound: AON: HER2-mRNA annealing Morpholino AON 5′-CATGGTGCTCACTGCGGCTCCGGC-NH2-3′ (all phosphorodiamidate morpholino (PMO), 3' {NH2})
tumor growth inhibition ([3]; AON in the absence of HER2 targeting, 2.5 mg/kg, ref [4]): 30–40%

koff [4]: 0.00042 s⁻¹
Compound: AHNP, anti-HER2/neu peptide, 12 amino acid exocyclic mimetic peptide (analogue 3)

Kd [4]: 4600 nM | koff [4]: 0.00054 s⁻¹ | kon [4]: 118 M⁻¹ s⁻¹
Compound: starPEG(PEG200-AHNP)2
